# Where two headings read alike, the source gives them in different places.
# System: hiPSC-CMs (iCell-Cardiomyocytes^2)
# In short: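 Monolayers of hiPSC-CMs on fibronectin-coated MEA plates, 50 K/well, kept at 37°C, 5% CO2; compounds added in 0.1% final DMSO after 5-min baseline. Field potential and impedance parameters expressed as mean ± SD percent change from baseline; arrhythmic events noted; cytotoxicity fluorescence normalized to DMSO, Kruskal-Wallis.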
compound,measurement,setting,value
Cc1cn(-c2cc(NC(=O)c3ccc(C)c(Nc4nccc(-c5cccnc5)n4)c3)cc(C(F)(F)F)c2)cn1 [Nilotinib],BR (beat rate) % change from baseline,"0.01 µM, 2h",1±2%
same,"Beating below threshold, number of observations/total well numbers","0.01 µM, 2h",0/5
same,"Cessation of beating, number of observations/total well numbers","0.01 µM, 2h",0/5
same,"EAD, number of observations/total well numbers","0.01 µM, 2h",0/5
same,"FPD (field-potential duration), % change from baseline","0.01 µM, 2h",3.9±3.8%
same,"FPDc (field-potential duration corrected by beat-rate), % change from baseline","0.01 µM, 2h",4.1±4%
same,"Flat T-wave-like, number of observations/total well numbers","0.01 µM, 2h",0/5
same,BR (beat rate) % change from baseline,"0.01 µM, 24h",-1±3%
same,"Beating below threshold, number of observations/total well numbers","0.01 µM, 24h",0/5
same,"Cessation of beating, number of observations/total well numbers","0.01 µM, 24h",0/5
same,"EAD, number of observations/total well numbers","0.01 µM, 24h",0/5
same,"FPD (field-potential duration), % change from baseline","0.01 µM, 24h",6.4±4.8%
same,"FPDc (field-potential duration corrected by beat-rate), % change from baseline","0.01 µM, 24h",6.1±4.9%
same,"Flat T-wave-like, number of observations/total well numbers","0.01 µM, 24h",0/5
same,BR (beat rate) % change from baseline,"0.01 µM, 48h",-3±2%
same,"Beating below threshold, number of observations/total well numbers","0.01 µM, 48h",0/5
same,"Cessation of beating, number of observations/total well numbers","0.01 µM, 48h",0/5
same,"EAD, number of observations/total well numbers","0.01 µM, 48h",0/5
same,"FPD (field-potential duration), % change from baseline","0.01 µM, 48h",12.9±12.2%
same,"FPDc (field-potential duration corrected by beat-rate), % change from baseline","0.01 µM, 48h",11.9±11.5%
same,"Flat T-wave-like, number of observations/total well numbers","0.01 µM, 48h",0/5
same,BR (beat rate) % change from baseline,"0.01 µM, 72h",-8±2%
same,"Beating below threshold, number of observations/total well numbers","0.01 µM, 72h",0/5
same,"Cessation of beating, number of observations/total well numbers","0.01 µM, 72h",0/5
same,"EAD, number of observations/total well numbers","0.01 µM, 72h",0/5
same,"FPD (field-potential duration), % change from baseline","0.01 µM, 72h",10.1±2.4%
same,"FPDc (field-potential duration corrected by beat-rate), % change from baseline","0.01 µM, 72h",7.1±2.3%
same,"Flat T-wave-like, number of observations/total well numbers","0.01 µM, 72h",0/5
same,BR (beat rate) % change from baseline,"0.01 µM, 96h",-14±3%
same,"Beating below threshold, number of observations/total well numbers","0.01 µM, 96h",0/5
same,"Cessation of beating, number of observations/total well numbers","0.01 µM, 96h",0/5
same,"EAD, number of observations/total well numbers","0.01 µM, 96h",0/5
same,"FPD (field-potential duration), % change from baseline","0.01 µM, 96h",13.9±2.5%
same,"FPDc (field-potential duration corrected by beat-rate), % change from baseline","0.01 µM, 96h",8.7±2.6%
same,"Flat T-wave-like, number of observations/total well numbers","0.01 µM, 96h",0/5
same,BR (beat rate) % change from baseline,"0.1 µM, 2h",-1±1%
same,"Beating below threshold, number of observations/total well numbers","0.1 µM, 2h",0/5
same,"Cessation of beating, number of observations/total well numbers","0.1 µM, 2h",0/5
same,"EAD, number of observations/total well numbers","0.1 µM, 2h",0/5
same,"FPD (field-potential duration), % change from baseline","0.1 µM, 2h",8.9±9.8%
same,"FPDc (field-potential duration corrected by beat-rate), % change from baseline","0.1 µM, 2h",8.6±10.1%
same,"Flat T-wave-like, number of observations/total well numbers","0.1 µM, 2h",0/5
same,BR (beat rate) % change from baseline,"0.1 µM, 24h",-8±3%
same,"Beating below threshold, number of observations/total well numbers","0.1 µM, 24h",0/5
same,"Cessation of beating, number of observations/total well numbers","0.1 µM, 24h",0/5
same,"EAD, number of observations/total well numbers","0.1 µM, 24h",0/5
same,"FPD (field-potential duration), % change from baseline","0.1 µM, 24h",19.8±3.9 %
same,"FPDc (field-potential duration corrected by beat-rate), % change from baseline","0.1 µM, 24h",16.6±4.1 %
same,"Flat T-wave-like, number of observations/total well numbers","0.1 µM, 24h",0/5
same,BR (beat rate) % change from baseline,"0.1 µM, 48h",-8±4%
same,"Beating below threshold, number of observations/total well numbers","0.1 µM, 48h",0/5
same,"Cessation of beating, number of observations/total well numbers","0.1 µM, 48h",0/5
same,"EAD, number of observations/total well numbers","0.1 µM, 48h",0/5
same,"FPD (field-potential duration), % change from baseline","0.1 µM, 48h",15.4±2.6%
same,"FPDc (field-potential duration corrected by beat-rate), % change from baseline","0.1 µM, 48h",12.7±3%
same,"Flat T-wave-like, number of observations/total well numbers","0.1 µM, 48h",0/5
same,BR (beat rate) % change from baseline,"0.1 µM, 72h",-11±4%
same,"Beating below threshold, number of observations/total well numbers","0.1 µM, 72h",0/5
same,"Cessation of beating, number of observations/total well numbers","0.1 µM, 72h",0/5
same,"EAD, number of observations/total well numbers","0.1 µM, 72h",0/5
same,"FPD (field-potential duration), % change from baseline","0.1 µM, 72h",17.3±1.9%
same,"FPDc (field-potential duration corrected by beat-rate), % change from baseline","0.1 µM, 72h",12.5±1.7%
same,"Flat T-wave-like, number of observations/total well numbers","0.1 µM, 72h",0/5
same,BR (beat rate) % change from baseline,"0.1 µM, 96h",-18±4%
same,"Beating below threshold, number of observations/total well numbers","0.1 µM, 96h",0/5
same,"Cessation of beating, number of observations/total well numbers","0.1 µM, 96h",0/5
same,"EAD, number of observations/total well numbers","0.1 µM, 96h",0/5
same,"FPD (field-potential duration), % change from baseline","0.1 µM, 96h",19.6±3.2%
same,"FPDc (field-potential duration corrected by beat-rate), % change from baseline","0.1 µM, 96h",11.8±4.2%
same,"Flat T-wave-like, number of observations/total well numbers","0.1 µM, 96h",0/5
same,BR (beat rate) % change from baseline,"0.3 µM, 2h",-4±1%
same,"Beating below threshold, number of observations/total well numbers","0.3 µM, 2h",0/5
same,"Cessation of beating, number of observations/total well numbers","0.3 µM, 2h",0/5
same,"EAD, number of observations/total well numbers","0.3 µM, 2h",0/5
same,"FPD (field-potential duration), % change from baseline","0.3 µM, 2h",22.4±5.4 %
same,"FPDc (field-potential duration corrected by beat-rate), % change from baseline","0.3 µM, 2h",20.8±5.2 %
same,"Flat T-wave-like, number of observations/total well numbers","0.3 µM, 2h",0/5
same,BR (beat rate) % change from baseline,"0.3 µM, 24h",-17±2 %
same,"Beating below threshold, number of observations/total well numbers","0.3 µM, 24h",0/5
same,"Cessation of beating, number of observations/total well numbers","0.3 µM, 24h",0/5
same,"EAD, number of observations/total well numbers","0.3 µM, 24h",0/5
same,"FPD (field-potential duration), % change from baseline","0.3 µM, 24h",61.6±9.1 %
same,"FPDc (field-potential duration corrected by beat-rate), % change from baseline","0.3 µM, 24h",52.4±8.3 %
same,"Flat T-wave-like, number of observations/total well numbers","0.3 µM, 24h",0/5
same,BR (beat rate) % change from baseline,"0.3 µM, 48h",-13±1%
same,"Beating below threshold, number of observations/total well numbers","0.3 µM, 48h",0/5
same,"Cessation of beating, number of observations/total well numbers","0.3 µM, 48h",0/5
same,"EAD, number of observations/total well numbers","0.3 µM, 48h",0/5
same,"FPD (field-potential duration), % change from baseline","0.3 µM, 48h",46.7±15.8 %
same,"FPDc (field-potential duration corrected by beat-rate), % change from baseline","0.3 µM, 48h",39.9±14.5 %
same,"Flat T-wave-like, number of observations/total well numbers","0.3 µM, 48h",0/5
same,BR (beat rate) % change from baseline,"0.3 µM, 72h",-19±3 %
same,"Beating below threshold, number of observations/total well numbers","0.3 µM, 72h",0/5
same,"Cessation of beating, number of observations/total well numbers","0.3 µM, 72h",0/5
same,"EAD, number of observations/total well numbers","0.3 µM, 72h",0/5
same,"FPD (field-potential duration), % change from baseline","0.3 µM, 72h",59.3±17.6 %
same,"FPDc (field-potential duration corrected by beat-rate), % change from baseline","0.3 µM, 72h",48.5±15 %
same,"Flat T-wave-like, number of observations/total well numbers","0.3 µM, 72h",0/5
same,BR (beat rate) % change from baseline,"0.3 µM, 96h",-23±2%
same,"Beating below threshold, number of observations/total well numbers","0.3 µM, 96h",0/5
same,"Cessation of beating, number of observations/total well numbers","0.3 µM, 96h",0/5
same,"EAD, number of observations/total well numbers","0.3 µM, 96h",0/5
same,"FPD (field-potential duration), % change from baseline","0.3 µM, 96h",57±11 %
same,"FPDc (field-potential duration corrected by beat-rate), % change from baseline","0.3 µM, 96h",44.7±10.1 %
same,"Flat T-wave-like, number of observations/total well numbers","0.3 µM, 96h",1/5
same,wells displaying EAD-like events,1 µM,one of five wells
same,BR (beat rate) % change from baseline,"1 µM, 2h",-15±5 %
same,"Beating below threshold, number of observations/total well numbers","1 µM, 2h",0/5
same,"Cessation of beating, number of observations/total well numbers","1 µM, 2h",0/5
same,"EAD, number of observations/total well numbers","1 µM, 2h",1/5
same,"FPD (field-potential duration), % change from baseline","1 µM, 2h",80.6±28.8 %
same,"FPDc (field-potential duration corrected by beat-rate), % change from baseline","1 µM, 2h",70.6±24.2 %
same,"Flat T-wave-like, number of observations/total well numbers","1 µM, 2h",0/5
same,BR (beat rate) % change from baseline,"1 µM, 24h",-42±3 %
same,"Beating below threshold, number of observations/total well numbers","1 µM, 24h",0/5
same,"Cessation of beating, number of observations/total well numbers","1 µM, 24h",0/5
same,"EAD, number of observations/total well numbers","1 µM, 24h",1/5
same,"FPD (field-potential duration), % change from baseline","1 µM, 24h",264.1±51.3 %
same,"FPDc (field-potential duration corrected by beat-rate), % change from baseline","1 µM, 24h",200.7±36.5 %
same,"Flat T-wave-like, number of observations/total well numbers","1 µM, 24h",2/5
same,BR (beat rate) % change from baseline,"1 µM, 48h",-37±3 %
same,"Beating below threshold, number of observations/total well numbers","1 µM, 48h",0/5
same,"Cessation of beating, number of observations/total well numbers","1 µM, 48h",0/5
same,"EAD, number of observations/total well numbers","1 µM, 48h",1/5
same,"FPD (field-potential duration), % change from baseline","1 µM, 48h",209.3±40.8 %
same,"FPDc (field-potential duration corrected by beat-rate), % change from baseline","1 µM, 48h",164.9±31.8 %
same,BR (beat rate) % change from baseline,"1 µM, 72h",-44±3 %
same,"Beating below threshold, number of observations/total well numbers","1 µM, 72h",0/5
same,"Cessation of beating, number of observations/total well numbers","1 µM, 72h",0/5
same,"EAD, number of observations/total well numbers","1 µM, 72h",1/5
same,"FPD (field-potential duration), % change from baseline","1 µM, 72h",260.2±58.2 %
same,"FPDc (field-potential duration corrected by beat-rate), % change from baseline","1 µM, 72h",196.4±43 %
same,"Flat T-wave-like, number of observations/total well numbers","1 µM, 72h",1/5
same,BR (beat rate) % change from baseline,"1 µM, 96h",-43±3 %
same,"Beating below threshold, number of observations/total well numbers","1 µM, 96h",0/5
same,"Cessation of beating, number of observations/total well numbers","1 µM, 96h",0/5
same,"EAD, number of observations/total well numbers","1 µM, 96h",1/5
same,"FPD (field-potential duration), % change from baseline","1 µM, 96h",208.7±49.5 %
same,"FPDc (field-potential duration corrected by beat-rate), % change from baseline","1 µM, 96h",156.3±38.4 %
same,"Flat T-wave-like, number of observations/total well numbers","1 µM, 96h",1/5
same,prolongation of FPD,"1 and 0.3 µM, acute and chronic time points",significant dose-dependent prolongation of the FPD
same,cessation of beating,any concentration,no cessation of beating occurred in any concentration

# From paper PMC10364322, “Evaluation of chronic drug-induced electrophysiological and cytotoxic effects using human-induced pluripotent stem cell-derived cardiomyocytes (hiPSC-CMs)” (Frontiers in Pharmacology, 2023)
